Source: US20230265151A1, “GIP/GLP1 CO-AGONIST COMPOUNDS” (priority 2020, published 2023)
Where two headings read alike, the source gives them in different places. *1 amine or outer side, *2 acyl side, *3 side chain or, on linkers, in order; H or OH if unused. Where a SMILES comes first, the peptide text is derived from it. Side-chain parts run from the residue outwards. [ ]: non-standard residue; d: D form. The star is where a group is joined. Decanoyl(10-(4-HOOC-PhO)) = O=C(O)c1ccc(OCCCCCCCCCC(=O)*)cc1; αMePhe(2-F) = C[C@](N)(Cc1ccccc1F)C(=O)O; γGlu = O=C(O)[C@H](CCC(=O)[*:2])N[*:1]; C14 diacid = O=C(O)CCCCCCCCCCCCC(=O)*; αMeY = C[C@](N)(Cc1ccc(O)cc1)C(=O)O; αMeL = CC(C)C[C@](C)(N)C(=O)O; Orn = NCCC[C@H](N)C(=O)O; AEEA = NCCOCCOCC(=O)O; Aib = CC(C)(N)C(=O)O

Legend:
Format in all cases: cell-based
[1] = biological target: T1, hGCGR (Homo sapiens, UniProt P47871); assay: Functional cAMP formation (HTRF) in HEK-293 clonal cells expressing hGCGR, 0.1% bovine casein, without or with 1.0% human serum albumin; details: geometric mean
T1 construct: expressed in transfected cells
T1 sequence (P47871 26-477): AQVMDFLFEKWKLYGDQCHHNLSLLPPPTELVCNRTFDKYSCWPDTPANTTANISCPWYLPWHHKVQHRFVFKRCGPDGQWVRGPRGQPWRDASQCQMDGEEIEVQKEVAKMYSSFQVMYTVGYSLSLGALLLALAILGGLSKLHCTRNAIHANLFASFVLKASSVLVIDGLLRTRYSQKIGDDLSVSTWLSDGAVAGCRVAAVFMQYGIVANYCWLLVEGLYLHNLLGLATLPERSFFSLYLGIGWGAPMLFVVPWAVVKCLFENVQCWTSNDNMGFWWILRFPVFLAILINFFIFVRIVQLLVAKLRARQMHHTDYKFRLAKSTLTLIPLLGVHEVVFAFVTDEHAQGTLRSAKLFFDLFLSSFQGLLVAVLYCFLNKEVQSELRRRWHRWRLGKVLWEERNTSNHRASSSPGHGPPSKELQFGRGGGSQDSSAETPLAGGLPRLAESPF
In short: (§1)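 Cells were stimulated with peptide for 30 min at 37° C, then intracellular cAMP was measured by competitive HTRF (665/620 nm ratio) and converted to nM using a cAMP standard curve. Relative EC50 and Emax came from four-parameter logistic fits of percent maximal response against peptide concentration.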

[2] = biological target: T2, hGIPR (Homo sapiens, UniProt P48546); assay: Functional cAMP formation (HTRF) in HEK-293 clonal cells expressing hGIPR, 0.1% bovine casein, without or with 1.0% human serum albumin; details: for EC50: geometric mean
T2 construct: expressed in transfected cells
T2 sequence (P48546 22-466): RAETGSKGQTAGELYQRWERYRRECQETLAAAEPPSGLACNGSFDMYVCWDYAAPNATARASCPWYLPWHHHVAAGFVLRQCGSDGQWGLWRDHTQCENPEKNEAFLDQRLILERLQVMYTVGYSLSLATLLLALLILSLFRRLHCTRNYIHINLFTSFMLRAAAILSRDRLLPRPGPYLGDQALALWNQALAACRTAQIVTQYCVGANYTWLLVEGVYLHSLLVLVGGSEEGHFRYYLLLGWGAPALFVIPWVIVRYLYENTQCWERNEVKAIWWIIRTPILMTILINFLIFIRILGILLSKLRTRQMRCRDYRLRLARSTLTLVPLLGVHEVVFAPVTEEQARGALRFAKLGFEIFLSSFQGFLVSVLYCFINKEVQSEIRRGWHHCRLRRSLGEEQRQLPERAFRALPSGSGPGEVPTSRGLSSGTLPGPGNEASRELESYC
In short: as §1

[3] = biological target: hGLP-1R (Homo sapiens, UniProt P43220); assay: Functional cAMP formation (HTRF) in HEK-293 clonal cells expressing hGLP-1R, 0.1% bovine casein, without or with 1.0% human serum albumin; set-up: expressed in transfected cells; details: for EC50: geometric mean
Chain of hGLP-1R (P43220 24-463): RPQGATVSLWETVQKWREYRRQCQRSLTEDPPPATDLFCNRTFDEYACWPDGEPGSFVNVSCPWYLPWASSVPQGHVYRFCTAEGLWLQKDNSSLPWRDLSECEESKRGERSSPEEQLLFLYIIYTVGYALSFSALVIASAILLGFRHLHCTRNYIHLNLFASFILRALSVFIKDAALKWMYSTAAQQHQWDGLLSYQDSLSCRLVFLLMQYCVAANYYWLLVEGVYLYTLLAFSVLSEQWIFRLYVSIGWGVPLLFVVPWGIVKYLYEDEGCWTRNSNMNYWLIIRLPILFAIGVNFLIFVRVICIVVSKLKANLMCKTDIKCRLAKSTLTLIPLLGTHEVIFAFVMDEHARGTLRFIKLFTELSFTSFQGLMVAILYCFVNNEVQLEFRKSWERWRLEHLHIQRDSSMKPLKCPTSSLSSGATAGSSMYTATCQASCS
In short: as §1

[4] = 0.1% bovine casein and 1.0% human serum albumin, 37° C., read-out: hGCGR EC50, nM (SEM, n)
[5] = HEK293, 0.1% bovine casein and 1.0% human serum albumin, 37° C., percent of maximal response to GIP(1-42)NH2, read-out: hGIPR Emax, % ± SEM

CC[C@H](C)[C@H](NC(=O)[C@H](CCCN)NC(=O)[C@H](CC(=O)O)NC(=O)[C@H](CC(C)C)NC(=O)[C@](C)(CC(C)C)NC(=O)[C@@H](NC(=O)[C@H](CO)NC(=O)[C@H](Cc1ccc(OC)cc1)NC(=O)[C@H](CC(=O)O)NC(=O)[C@H](CO)NC(=O)[C@@H](NC(=O)[C@](C)(Cc1ccccc1F)NC(=O)[C@@H](NC(=O)CNC(=O)[C@H](CCC(=O)O)NC(=O)C(C)(C)NC(=O)[C@@H](N)Cc1ccc(O)cc1)[C@@H](C)O)[C@@H](C)O)[C@@H](C)CC)C(=O)N[C@@H](C)C(=O)N[C@@H](CCC(N)=O)C(=O)NC(C)(C)C(=O)N[C@@H](CCC(=O)O)C(=O)N[C@@H](Cc1ccccc1)C(=O)N[C@H](C(=O)N[C@@H](CCCCNC(=O)COCCOCCNC(=O)COCCOCCNC(=O)CC[C@H](NC(=O)CCCCCCCCCCCCC(=O)O)C(=O)O)C(=O)N[C@@](C)(Cc1ccc(O)cc1)C(=O)N[C@@H](CC(C)C)C(=O)N[C@H](C(=O)N[C@@H](CCCCNC(=O)COCCOCCNC(=O)COCCOCCNC(=O)CC[C@H](NC(=O)CCCCCCCCCCCCC(=O)O)C(=O)O)C(=O)NCC(=O)NCC(=O)N1CCC[C@H]1C(=O)N[C@@H](CO)C(=O)N[C@@H](CO)C(=O)NCC(=O)N[C@@H](C)C(=O)N1CCC[C@H]1C(=O)N1CCC[C@H]1C(=O)N1CCC[C@H]1C(=O)N[C@@H](CO)C(N)=O)[C@@H](C)CC)[C@@H](C)CC [Example 262] (H-Y[Aib]EGT[αMePhe(2-F)]TSDY(Me)SI[αMeL]LD[Orn]IAQ[Aib]EFIK([AEEA-AEEA-γGlu-C14 diacid])[αMeY]LIK([AEEA-AEEA-γGlu-C14 diacid])GGPSSGAPPPS-NH2; N-terminus assumed)
EC50 [1, 4]: > 9950 nM | EC50 ([1]; cAMP, 37° C., 0.1% bovine casein (no human serum albumin), read-out: hGCGR EC50, nM (SEM, n)): > 9950 nM | Emax [2, 5]: 79.7% | Emax ([2]; HEK293, cAMP, 37° C., 0.1% bovine casein, percent of maximal response to GIP(1-42)NH2, arithmetic mean, read-out: hGIPR Emax, % ± SEM): 89.8% | Emax ([3]; HEK293, 0.1% bovine casein and 1.0% human serum albumin, 37° C., percent of maximal response to GLP-1(7-36)NH2, read-out: hGLP-1R Emax, % ± SEM): 115% | Emax ([3]; HEK293, cAMP, 37° C., 0.1% bovine casein, percent of maximal response to GLP-1(7-36)NH2, arithmetic mean, read-out: hGLP-1R Emax, % ± SEM): 105%

CC[C@H](C)[C@H](NC(=O)[C@H](CC(C)C)NC(=O)[C@](C)(Cc1ccc(O)cc1)NC(=O)[C@@H](CCC(=O)O)NC(=O)[C@@H](NC(=O)[C@H](Cc1ccccc1)NC(=O)[C@H](CCC(=O)O)NC(=O)C(C)(C)NC(=O)[C@H](CCC(N)=O)NC(=O)[C@H](C)NC(=O)[C@H](CCCCNC(=O)CC[C@H](NC(=O)COCCOCCNC(=O)CCCCCCCCCCCCC(=O)O)C(=O)O)NC(=O)[C@H](CCCN)NC(=O)[C@H](CC(=O)O)NC(=O)[C@H](CC(C)C)NC(=O)[C@](C)(CC(C)C)NC(=O)[C@@H](NC(=O)[C@H](CO)NC(=O)[C@H](Cc1ccncc1)NC(=O)[C@H](CC(=O)O)NC(=O)[C@H](CO)NC(=O)[C@@H](NC(=O)[C@](C)(Cc1ccccc1F)NC(=O)[C@@H](NC(=O)CNC(=O)[C@H](CCC(=O)O)NC(=O)C(C)(C)NC(=O)[C@@H](N)Cc1ccc(O)cc1)[C@@H](C)O)[C@@H](C)O)[C@@H](C)CC)[C@@H](C)CC)C(=O)N[C@@H](CCC(=O)O)C(=O)NCC(=O)NCC(=O)N[C@@H](CCCCNC(=O)CC[C@H](NC(=O)COCCOCCNC(=O)CCCCCCCCCCCCC(=O)O)C(=O)O)C(=O)N[C@@H](CO)C(=O)N[C@@H](CO)C(=O)NCC(=O)N[C@@H](C)C(=O)N1CCC[C@H]1C(=O)N1CCC[C@H]1C(=O)N1CCC[C@H]1C(=O)N[C@@H](CO)C(N)=O [Example 42]
EC50 [1, 4]: > 9950 nM | EC50 ([1]; cAMP, incubated at 37° C., 0.1% bovine casein (no human serum albumin), read-out: hGCGR EC50, nM (SEM, n)): > 9950 nM | EC50 ([2]; 0.1% bovine casein and 1.0% human serum albumin, 37° C., read-out: hGIPR EC50, nM (SEM, n)): 1 nM | Emax [2, 5]: 91.1 ± 0.67% | Emax ([2]; HEK293, percent of maximal response to GIP(1-42)NH2, 37° C., 0.1% bovine casein, arithmetic mean, read-out: hGIPR Emax, % ± SEM): 97.8 ± 7.18% | EC50 ([2]; cAMP, incubated at 37° C., 0.1% bovine casein (no human serum albumin), read-out: hGIPR EC50, nM (SEM, n)): 0.0103 nM | EC50 ([3]; 0.1% bovine casein and 1.0% human serum albumin, 37° C., read-out: hGLP-1R EC50, nM (SEM, n)): 26.7 nM

CC[C@H](C)[C@H](NC(=O)[C@H](CC(C)C)NC(=O)[C@](C)(Cc1ccccc1)NC(=O)[C@H](CCCCNC(=O)COCCOCCNC(=O)COCCOCCNC(=O)CC[C@H](NC(=O)CCCCCCCCCCCCC(=O)O)C(=O)O)NC(=O)[C@@H](NC(=O)[C@](C)(Cc1ccccc1)NC(=O)[C@H](CCC(=O)O)NC(=O)C(C)(C)NC(=O)[C@H](CCC(N)=O)NC(=O)[C@H](C)NC(=O)[C@H](CCCCNC(=O)COCCOCCNC(=O)COCCOCCNC(=O)CC[C@H](NC(=O)CCCCCCCCCCCCC(=O)O)C(=O)O)NC(=O)[C@H](CCCN)NC(=O)[C@H](CC(=O)O)NC(=O)[C@H](CC(C)C)NC(=O)[C@](C)(CC(C)C)NC(=O)[C@@H](NC(=O)[C@H](CO)NC(=O)[C@@H](NC(=O)[C@H](CC(=O)O)NC(=O)[C@H](CO)NC(=O)[C@@H](NC(=O)[C@](C)(Cc1ccccc1F)NC(=O)[C@@H](NC(=O)CNC(=O)[C@H](CCC(=O)O)NC(=O)C(C)(C)NC(=O)[C@@H](N)Cc1ccc(O)cc1)[C@@H](C)O)[C@@H](C)O)C(C)C)[C@@H](C)CC)[C@@H](C)CC)C(=O)N[C@@H](CCC(=O)O)C(=O)NCC(=O)NCC(=O)N1CCC[C@H]1C(=O)N[C@@H](CO)C(=O)N[C@@H](CO)C(=O)NCC(=O)N[C@@H](C)C(=O)N1CCC[C@H]1C(=O)N1CCC[C@H]1C(=O)N1CCC[C@H]1C(=O)N[C@@H](CO)C(N)=O [Example 122]
EC50 ([1]; hGCGR EC50, nM (SEM, n), cAMP, incubated at 37° C., 0.1% bovine casein (no human serum albumin)): > 9950 nM | EC50 ([2]; hGIPR EC50, nM (SEM, n), cAMP, incubated at 37° C., 0.1% bovine casein (no human serum albumin)): 0.064 nM | Emax ([3]; HEK293, read-out: hGLP-1R Emax, % ± SEM, percent of maximal response to GLP-1(7-36)NH2, 37° C., 0.1% bovine casein, arithmetic mean): 94.3%

CC[C@H](C)[C@H](NC(=O)[C@H](CCCN)NC(=O)[C@H](CC(=O)O)NC(=O)[C@H](CC(C)C)NC(=O)[C@](C)(CC(C)C)NC(=O)[C@@H](NC(=O)[C@H](CO)NC(=O)[C@H](Cc1ccc(OC)cc1)NC(=O)[C@H](CC(=O)O)NC(=O)[C@H](CO)NC(=O)[C@@H](NC(=O)[C@](C)(Cc1ccccc1F)NC(=O)[C@@H](NC(=O)CNC(=O)[C@H](CCC(=O)O)NC(=O)C(C)(C)NC(=O)[C@@H](N)Cc1ccc(O)cc1)[C@@H](C)O)[C@@H](C)O)[C@@H](C)CC)C(=O)N[C@@H](C)C(=O)N[C@@H](CCC(N)=O)C(=O)NC(C)(C)C(=O)N[C@@H](CCC(=O)O)C(=O)N[C@@H](Cc1ccccc1)C(=O)N[C@H](C(=O)N[C@@H](CCCCNC(=O)COCCOCCNC(=O)COCCOCCNC(=O)CC[C@H](NC(=O)CCCCCCCCCOc1ccc(C(=O)O)cc1)C(=O)O)C(=O)N[C@@](C)(Cc1ccc(O)cc1)C(=O)N[C@@H](CC(C)C)C(=O)N[C@H](C(=O)N[C@@H](CCCCNC(=O)COCCOCCNC(=O)COCCOCCNC(=O)CC[C@H](NC(=O)CCCCCCCCCOc1ccc(C(=O)O)cc1)C(=O)O)C(=O)NCC(=O)NCC(=O)N1CCC[C@H]1C(=O)N[C@@H](CO)C(=O)N[C@@H](CO)C(=O)NCC(=O)N[C@@H](C)C(=O)N1CCC[C@H]1C(=O)N1CCC[C@H]1C(=O)N1CCC[C@H]1C(=O)N[C@@H](CO)C(N)=O)[C@@H](C)CC)[C@@H](C)CC [Example 279] (H-Y[Aib]EGT[αMePhe(2-F)]TSDY(Me)SI[αMeL]LD[Orn]IAQ[Aib]EFIK([AEEA-AEEA-γGlu-Decanoyl(10-(4-HOOC-PhO))])[αMeY]LIK([AEEA-AEEA-γGlu-Decanoyl(10-(4-HOOC-PhO))])GGPSSGAPPPS-NH2)
EC50 ([1]; hGCGR EC50, nM (SEM, n), 0.1% bovine casein and 1.0% human serum albumin, 37° C.): > 9950 nM | EC50 ([1]; hGCGR EC50, nM (SEM, n), cAMP, 37° C., 0.1% bovine casein (no human serum albumin)): > 9950 nM | Emax ([2]; HEK293, read-out: hGIPR Emax, % ± SEM, 0.1% bovine casein and 1.0% human serum albumin, 37° C., percent of maximal response to GIP(1-42)NH2): 88.6% | EC50 ([2]; hGIPR EC50, nM (SEM, n), cAMP, 37° C., 0.1% bovine casein (no human serum albumin)): 0.0305 nM | Emax ([3]; HEK293, read-out: hGLP-1R Emax, % ± SEM, 0.1% bovine casein and 1.0% human serum albumin, 37° C., percent of maximal response to GLP-1(7-36)NH2): 114% | Emax ([3]; HEK293, read-out: hGLP-1R Emax, % ± SEM, cAMP, 37° C., 0.1% bovine casein, percent of maximal response to GLP-1(7-36)NH2, arithmetic mean): 112% | EC50 ([3]; hGLP-1R EC50, nM (SEM, n), 0.1% bovine casein and 1.0% human serum albumin, 37° C.): 36.6 nM | EC50 ([3]; hGLP-1R EC50, nM (SEM, n), cAMP, 37° C., 0.1% bovine casein (no human serum albumin)): 0.406 nM
